This is an account of results in publication PMC7004148, “Flexible Fragment Growing Boosts Potency of Quorum‐Sensing Inhibitors against Pseudomonas aeruginosa Virulence” (Chemmedchem, 2019).

The structures appear in SMILES notation. “And” between values parts separate entries of the source, which are not always exact repeats. Equal entries are not always repeated.

The test system of assay [1] is pyocyanin in P. aeruginosa PA14. In words: Pyocyanin assay in P. aeruginosa PA14 cultures. Type of assay: cell-based, Pseudomonas aeruginosa PA14. Conditions: Pseudomonas aeruginosa; for IC50: PA14, read-out: Pyocyanin IC50, PA14 cultures, photometric quantification, mean of at least two independent experiments, SD<25 %. As to the method: 6. Effects in P. aeruginosa
Pyocyanin Assay. The inhibition of virulence factor pyocyanin was measured as described previously[26] following a procedure established by Essar et al.[28] Briefly, Pseudomonas aeruginosa PA14 cultures were grown in the presence of inhibitors or DMSO as control for 16 h. Pyocyanin was determined photometrically after extraction of the cultures with chloroform and re-extraction with 0.2 M HCl. Protonated red colored pyocyanin was determined by measuring OD520 and normalizing to OD600. None of the compound impaired bacterial viability as observed by the OD600 parameter. Inhibition values were expressed in relation to the DMSO control. Each value is the mean of at least two independent experiments with n=3.
The given IC50 values represent the mean of at least two experiments using at least five different concentrations. Curve fitting was performed using the log (inhibitor) vs response model with constrained bottom = 0 and top =100 (GraphPad Prism 5.0).
Figure S4: Inhibition of virulence factor pyocyanin was evaluated in the clinical isolate PA14.
Representative dose-response curves a) compound 11 b) compound 20. Black dotes (•) represent the reduction of pyocyanin in presents of a given compound concentration relative to DMSO control (= 0 %). The continuous black line is the none -linear regression analysis to […]
(1 picture or pasted object on this page, not shown here)

Assay [2] has as its target T1, PqsR (Pseudomonas aeruginosa, UniProt Q9I4X0). In words: PqsR β-galactosidase reporter gene assay in E. coli. As to conditions: for Inverse agonistic/antagonistic activity at a given concentration: @ 100 μM; for Inverse agonistic/antagonistic activity at a given concentration / IC50 (inverse agonistic/antagonistic activity): in the presence of 50 nM PQS; for IC50 (inverse agonistic/antagonistic activity): n.i.=no inhibition (activity≤15 %). Further details: expressed in transfected cells; host or cells: E. coli DH5α carrying plasmid pEAL08-2. The class given is cell-based. As to the method: 5. E. coli reporter-gene assay & dose-response curves
PqsR Reporter gene assay in E. coli. The inverse agonistic/antagonistic activity of potential PqsR ligands was evaluated in a β-galactosidase reporter gene assay in E. coli as previously described.[26] In short, test compounds were co-incubated with E. coli DH5α cells containing the plasmid pEAL08-2,[27] which expresses PqsR and the β-galactosidase LacZ under the control of the pqsA promoter. The inverse agonistic/antagonistic activity of compounds was measured in the presence of 50 nM PQS. After incubation, galactosidase activity was quantified photometrically and expressed as ratio of controls. The given IC50 values represent the mean of at least two independent experiments using at least eight different concentrations of test compound with n = 4. Non-linear regression analysis was done using the log (inhibitor) vs response model included in the GrapPad Prism 5.0 software package.
A general note: In a reporter assay the amount or activity of a reporter protein is the signal.
Target sequence in this assay (Q9I4X0 whole entry): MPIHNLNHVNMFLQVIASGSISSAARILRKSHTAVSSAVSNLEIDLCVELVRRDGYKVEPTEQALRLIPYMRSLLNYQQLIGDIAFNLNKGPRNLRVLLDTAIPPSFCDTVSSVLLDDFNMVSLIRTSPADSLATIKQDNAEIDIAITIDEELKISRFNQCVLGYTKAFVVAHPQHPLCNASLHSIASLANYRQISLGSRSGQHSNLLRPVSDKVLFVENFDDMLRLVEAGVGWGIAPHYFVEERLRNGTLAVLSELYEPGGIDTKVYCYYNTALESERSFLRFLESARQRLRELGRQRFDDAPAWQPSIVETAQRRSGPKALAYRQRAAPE

For assay [3], the target named is T1, PqsR. In words: biochemical. Type of assay: binding. Further details: H6SUMOPqsRc87 and T265A mutant H6SUMOPqsRc87 for ITC studies was expressed; made in house; host or cells: E. coli BL21 (λDE3). How it is done: 3.2 Expression and Purification of H6SUMOPqsRc87
H6SUMOPqsRc87 and T265A mutant H6SUMOPqsRc87 for ITC studies was expressed and purified as previously reported.[8,9] Briefly, E. coli BL21 (λDE3) transfected with the pSUMO3_ck4_pqsRC87 or pSUMO3_ck4_T265ApqsRC87 plasmid[8] were grown in LB medium containing 50 µg mL-1 kanamycin at 37 °C to an OD600 of approximately 0.8 and expression was induced with 0.2 mM IPTG for 16 h at 16 °C. The protein was purified using nickel affinity chromatography in a one step gradient.
ITC titrations were performed as described before.[8,9] Briefly, ITC experiments were carried out using an ITC200 instrument (Microcal Inc., GE Healthcare). The titrations were performed on 50-150 µM H6SUMO-PqsRC87 in the 200 µL sample cell using 19 injections of 2 µL ligand solution (0.5-1.5 mM) every 180 s. The data were collected and the area under each peak was integrated. To correct for heats of dilution and mixing the final base line consisting of small peaks of the same size at the end of the titration were substracted.
Target sequence in this assay (Q9I4X0 87-332): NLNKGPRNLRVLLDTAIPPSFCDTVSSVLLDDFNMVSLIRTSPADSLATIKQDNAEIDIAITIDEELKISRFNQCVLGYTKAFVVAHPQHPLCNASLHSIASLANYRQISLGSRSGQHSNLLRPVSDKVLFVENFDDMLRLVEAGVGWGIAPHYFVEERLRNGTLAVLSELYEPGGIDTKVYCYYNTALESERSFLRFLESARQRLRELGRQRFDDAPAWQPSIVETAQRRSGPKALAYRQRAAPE

Assay [4] concerns the target PqsR ligand binding domain. Further details: method as in PMID 23713667. As to conditions: native agonist PQS towards the ligand binding domain; cited from earlier work.
Assay [5] has as its system PqsR. Further details: method as in PMID 24338917. Conditions: PQS-mediated effect in E. coli-based assay; read-out: EC 50(E.coli); cited from earlier work.
Assay [6] has as its target T1, PqsR. In words: PQS-mediated effect in P. aeruginosa. The class given is cell-based. Further details: expressed in transfected cells; host or cells: E. coli DH5α carrying plasmid pEAL08-2.
Target sequence in this assay (Q9I4X0 whole entry): as the sequence (Q9I4X0 whole entry) above
Where [7] appears, read: PA14, read-out: Pyocyanin inhibition.
Where [8] appears, read: Table 1, EE=−ΔH/(heavy atom count).
The mark [9] stands for this setting: Table 1, LE=−ΔG/(heavy atom count).

One may read the IC50 as the point on the concentration scale where inhibition reaches its midpoint. `O=C(CSc1nc2ccc([N+](=O)[O-])cc2[nH]1)Nc1ccc(Oc2ccccc2)cc1` [Compound R1, reference compound]: the IC50 in assay [1] was found to be 120 nM.

Regarding `Nc1cc(NC(=O)c2ccc(F)cc2)cc(C(F)(F)F)n1` [Compound 16], the “Inverse agonistic/antagonistic activity at a given concentration” value on PqsR [2] amounted to 35±5 % @ 100 μM.

For orientation: Kd means the concentration at which binding is half-saturated. For `Nc1cc(NCc2ccc(F)cc2F)cc(C(F)(F)F)n1` [Compound 13], the dissociation constant (Kd) at PqsR [3] came to 1300 ± 300 nM. Moreover, at PqsR [3] (Table S1), the “-TΔS” value amounted to 3.5 ± 0.8 kcal/mol and the ΔG is -8.0 ± 0.1 kcal/mol. This compound came in with an EE on PqsR [3] (Table S1, enthalpic efficiency) of 0.55 kcal/mol. Also, on PqsR [3] (Table S1, ligand efficiency), the LE came to 0.40 kcal/mol.

With `CC(=O)Nc1cccc(C(F)(F)F)n1` [Compound 8], the “IC50 (inverse agonistic/antagonistic activity)” value on PqsR [2] is “n.i”. At PqsR [3] (Table 1, ITC at 298 K, mean±SD, at least two independent experiments, >50 = no heat release detectable at solubility maximum), the “K D (ITC)” value was “abolished the affinity”.

Broadly, the inhibition is the relative decrease from the control value, in per cent. Take `Nc1cc(NCCOc2ccc(F)cc2)cc(C(F)(F)F)n1` [Compound 21]: the inhibition at 100 µM in assay [1] (setting [7]) was 58%. Further, on PqsR [2] (E. coli reporter gene assay, compared with 20), the “drop in antagonistic activity versus 20” value is recorded as 20 fold.

In turn, `Nc1cc(NCc2ccccc2)cc(C(F)(F)F)n1` [Compound 12] yielded a Kd on PqsR [3] of 1400 ± 500 nM. For the same compound, on PqsR [3] (Table S1), the “-TΔS” value stood at 3.2 ± 0.5 kcal/mol and the ΔG was -8.1 ± 0.3 kcal/mol. At PqsR [3] (Table S1, enthalpic efficiency), the EE was found to be 0.57 kcal/mol. This compound registered an LE at PqsR [3] (Table S1, ligand efficiency) of 0.43 kcal/mol.

On to `Nc1cc(C#CC2CC2)cc(C(F)(F)F)n1` [Compound 9], for which, on PqsR [2], the “IC50 (inverse agonistic/antagonistic activity)” value is on record as “n.i”. Moreover, binding on PqsR [3] was characterised by a dissociation constant (Kd) of 7500 ± 100 nM. Further, at PqsR [3] (Table S1), the “-TΔS” value was -3.8 ± 0.6 kcal/mol; the ΔG was -6.9 ± 0.0 kcal/mol; the ΔH is -3.7 ± 0.6 kcal/mol and -3.7 kcal/mol. This compound had an EE at PqsR [3] (Table S1, enthalpic efficiency) of 0.23 kcal/mol. Further, the LE on PqsR [3] (Table S1, ligand efficiency) was 0.43 kcal/mol.

Consider `Nc1nnc(-c2cccc(C(F)(F)F)c2)o1` [Compound 2], for which binding on PqsR [3] was put at a Kd of 1300 ± 300 nM. This compound also came in with an EE at PqsR [3] (setting [8]) of 0.53 kcal/mol. In addition, on PqsR [3] (Table 1, ITC at 298 K), the ΔG was -8.0 ± 0.1 kcal/mol, the ΔH was -8.5 ± 0.5 kcal/mol and the “−TΔS” value came out at 0.4 ± 0.6 kcal/mol. In addition, the LE at PqsR [3] (setting [9]) was 0.50 kcal/mol.

On to `Nc1cc(N2CCC(c3ccc(F)cc3)C2)cc(C(F)(F)F)n1` (stereo not drawn) [Compound 18], for which the “IC50 (inverse agonistic/antagonistic activity)” value at PqsR [2] is reported as “n.i”.

In turn, `CC(C)(C)c1ccc(C(=O)NO)cc1` [Compound 1] displayed a Kd on PqsR [3] of 4100 ± 600 nM. The compound further registered an EE at PqsR [3] (setting [8]) of 0.63 kcal/mol. At PqsR [3] (Table 1, ITC at 298 K), the ΔG was -7.4 ± 0.1 kcal/mol, the ΔH is -8.9 ± 0.2 kcal/mol and the “−TΔS” value was 1.5 ± 0.3 kcal/mol. At PqsR [3] (setting [9]), the LE turned out to be 0.53 kcal/mol.

`Nc1cc(NCC(=O)Nc2ccc(F)cc2)cc(C(F)(F)F)n1` [Compound 22]: the inhibition at 100 µM in assay [1] (setting [7]) worked out at 37%.

In turn, `Nc1ccc(Br)cn1` [Compound 4] displayed a Kd at PqsR [3] greater than 50000 nM.

On to `Nc1cc(Br)ccn1` [Compound 5], for which binding on PqsR [3] was put at a Kd of 21300 ± 3400 nM. This compound gave an EE on PqsR [3] (setting [8]) of 0.72 kcal/mol. In addition, at PqsR [3] (Table 1, ITC at 298 K), the ΔG is -6.4 ± 0.1 kcal/mol, the ΔH is -5.8 ± 0.1 kcal/mol and the “−TΔS” value was -0.6 ± 0.2 kcal/mol. This compound also gave an LE on PqsR [3] (setting [9]) of 0.80 kcal/mol.

Regarding `CCCCCCCc1[nH]c2ccccc2c(=O)c1O` [PQS, 2‐heptyl‐3‐hydroxy‐4(1H)‐quinolone], the Kd in assay [4] was 1200 ± 300 nM. The values for the EC50 in the assay with PqsR [5] and at PqsR [6] were 6.3 nM and 24 nM, respectively.

As to `Nc1cc(-c2ccc(F)cc2)cc(C(F)(F)F)n1` [Compound 10], on PqsR [2], the “Inverse agonistic/antagonistic activity at a given concentration” value is given as 29 % @ 100 μM.

Turning to `Nc1cccc(C(F)(F)F)n1` [Compound 7], the inhibition at 250 µM in assay [1] (setting [7]) turned out to be 43%. This compound showed a Kd on PqsR [3] of 3100 ± 500 nM. In addition, the EE on PqsR [3] (setting [8]) is 1.05 kcal/mol. Besides, on PqsR [3] (Table 1, ITC at 298 K), the ΔG is -7.5 ± 0.1 kcal/mol; the ΔH was -11.5 kcal/mol and -11.5 ± 0.9 kcal/mol; the “−TΔS” value was 3.7 ± 1 kcal/mol. The LE at PqsR [3] (setting [9]) amounted to 0.70 kcal/mol.

`Nc1cccc(Br)n1` [Compound 3]: on PqsR [2], the “IC50 (inverse agonistic/antagonistic activity)” value was “did not show significant antagonistic activity”. This compound also displayed a Kd at PqsR [3] of 10000 ± 1300 nM. Besides, the EE at PqsR [3] (setting [8]) was found to be 1.17 kcal/mol. At PqsR [3] (Table 1, ITC at 298 K), the ΔG is -6.8 ± 0.1 kcal/mol, the ΔH is -9.3 ± 0.4 kcal/mol and the “−TΔS” value amounted to 2.5 ± 0.4 kcal/mol. The LE on PqsR [3] (setting [9]) was determined as 0.85 kcal/mol.

Regarding `CCCCCCCc1[nH]c2ccc([N+](=O)[O-])cc2c(=O)c1C(N)=O` [Compound R2, reference compound], the IC50 in assay [1] stood at 2000 nM.

As for `Nc1ncccc1Br` [Compound 6], on PqsR [3], the Kd is greater than 50000 nM.

As to `Nc1cc(NCCc2ccc(F)cc2)cc(C(F)(F)F)n1` [Compound 19], the Kd on PqsR [3] was found to be 4700 ± 2300 nM. For the same compound, on PqsR [3] (Table S1), the “-TΔS” value came to 6.1 ± 0.7 kcal/mol and the ΔG is -7.4 ± 0.3 kcal/mol. The compound further registered an EE at PqsR [3] (Table S1, enthalpic efficiency) of 0.64 kcal/mol. In addition, the LE on PqsR [3] (Table S1, ligand efficiency) came out at 0.35 kcal/mol.
